Results on one molecule are retold here after patent publication US20010053781A1, “Pharmaceutical composition for enhancing cognition” (National Science Council, priority 2000, published 2001).

In series [1] the test system is scopolamine (SCOP)-induced acquisition impairment of passive avoidance response in rats. The experiment in a line: Passive avoidance task, scopolamine-induced acquisition impairment. It is filed as in vivo, rat. The note with it: ferulic acid at 50-100 mg/ml (printed), i.p. 1 hour before training trial, scopolamine 1 mg/kg i.p., FIG. 1. The protocol: (§1) Male Sprague-Dawley rats, weighing 200-250 grams, were housed in groups of six with free access to food and water and kept in a regulated environment (23±1° C.), wherein a 12-hour light-dark cycle (08:00-20:00 hours light) was maintained. Each experimental group included 12-18 rats. Rats were trained in a step-through passive avoidance task (Muromachi Kikai Co. Ltd. Japan). The apparatus consisted of two compartments having a steel-rod grid floor (36 parallel steel rods, 0.3 cm in diameter set 1.5 cm apart). One of the compartments (48×20×30 cm) was equipped with a 20 Watt lamp located centrally at a height of 30 cm, and the other was a dark compartment of the same size connected through a guillotine door (5×5 cm). The dark room was used during the experimental sessions that were conducted between 09:00 and 17:00. During the trial training, the guillotine door connecting the light and dark compartment was kept closed. After each rat was placed in the light compartment with its back to the guillotine door, the door was opened and simultaneously the time (step-through latency; STL) taken by the rat to enter the dark compartment was measured with a stopwatch^(14). Once the rat entered the dark compartment, the door was closed. An inescapable scrambled footshock (1.0 mA for 2 sec) was then delivered through the grid floor. […]

For series [2], the system named is mecamylamine-induced acquisition impairment of passive avoidance response in rats. The experiment in a line: Passive avoidance task, mecamylamine-induced acquisition impairment. The note with it: ferulic acid at 50-100 mg/ml (printed), i.p. 1 hour before training trial, mecamylamine 10 mg/kg i.p., FIG. 2. It is filed as in vivo, rat. How it is done: as §1
Series [3] has as its system pirenzepine-induced acquisition impairment of passive avoidance response in rats. As to the kind of experiment: Passive avoidance task, pirenzepine-induced acquisition impairment. It is filed as in vivo, rat. The settings on record: ferulic acid at 50-100 mg/ml (printed), i.p., pirenzepine 1 mg/kg i.p., FIG. 3. How it is done: as §1
The test system of series [4] is cycloheximide (CXM)-induced memory storage impairment of passive avoidance response in rats. As to the kind of experiment: Passive avoidance task, cycloheximide-induced memory consolidation impairment. It is filed as in vivo, rat. The note with it: ferulic acid at 50-100 mg/ml (printed), administered 60 minutes before the training trial, cycloheximide 1.5 mg/kg s.c., FIGS. 4-5. How it is done:
as §1

Series [5] deals with scopolamine plus mecamylamine-induced acquisition impairment of passive avoidance response in rats. As to the kind of experiment: Passive avoidance task, scopolamine plus mecamylamine-induced acquisition impairment. It is filed as in vivo, rat. The settings on record: ferulic acid at 50-100 mg/ml (printed), scopolamine and mecamylamine co-administered under the threshold dosage, FIG. 6. The protocol:
as §1

The subject of series [6] is scopolamine (SCOP)-induced acquisition impairment of passive avoidance response in rats. The experiment in a line: Passive avoidance task, scopolamine-induced impairment with peripheral antagonist scopolamine methylbromide. It is filed as in vivo, rat. The settings on record: FIG. 7. The protocol:
as §1

The subject of series [7] is AF64A-induced impairment of passive avoidance response in rats. As to the kind of experiment: Passive avoidance task, AF64A-induced impairment. It is filed as in vivo, rat. The settings on record: ferulic acid at 50-100 mg/kg, AF64-A 3 nmol/μl/brain into lateral ventricle 10 days before training, FIG. 8. The protocol: Male Sprague-Dawley rats, weighing 200-250 grams, were housed in groups of six with free access to food and water and kept in a regulated environment (23±1° C.), wherein a 12-hour light-dark cycle (08:00-20:00 hours light) was maintained. Each experimental group included 12-18 rats.
Rats were trained in a step-through passive avoidance task (Muromachi Kikai Co. Ltd. Japan). The apparatus consisted of two compartments having a steel-rod grid floor (36 parallel steel rods, 0.3 cm in diameter set 1.5 cm apart). One of the compartments (48×20×30 cm) was equipped with a 20 Watt lamp located centrally at a height of 30 cm, and the other was a dark compartment of the same size connected through a guillotine door (5×5 cm). […]
During the trial training, the guillotine door connecting the light and dark compartment was kept closed. After each rat was placed in the light compartment with its back to the guillotine door, the door was opened and simultaneously the time (step-through latency; STL) taken by the rat to enter the dark compartment was measured with a stopwatch^(14). […] The rat was once again placed in the light compartment and as in the case of the training trial, the guillotine door was opened and the step-through latency was recorded and used as a measure of retention. […]
The step-through latency of rats in light compartment was recorded according to the method described in Example 1. […]

For series [8], the system named is deficit of place learning in the Morris water maze task induced by scopolamine in rats. As to the kind of experiment: Morris water maze test, scopolamine-induced deficit of place learning. The settings on record: 50-100 mg/kg ferulic acid i.p., scopolamine 0.3 mg/kg i.p., FIG. 9. It is filed as in vivo, rat.
Description: The water maze apparatus (Columbus Instruments Intl. Co., USA) was used in this Example. The swimming time and track of rats in the water maze were monitored by the Videomex V System and recorded by computer software. The water maze apparatus consisted of a water tank of 180 cm in diameter and 35 cm in height. The water stained as milk-white color was poured into the tank (25 cm in depth, 23±1° C.) before the training trial. The tank was conceptually divided into the 4 quadrants of east, west, south and north on the computer. An acrylic plate of 10 cm in diameter was placed at the north quadrant 1 cm below the water level. Rats were trained 4 times per day as one training course for 5 days. In one training course, each rat swam to the acrylic plate from 4 different quadrants, respectively. 10 seconds after swimming to the acrylic plate, the rat was returned to the home cage. After 30 seconds of rest, the next training session was carried out. The swimming time from the beginning to the acrylic plate was recorded, and an upper cut-off time of 60 seconds was set^(18). Ferulic acid (Sigma) was freshly dissolved in carboxy-methyl cellulose, and administered to rats (50, 100 mg/kg, i.p.) 1 hour before the training trial in combination with the following drug: scopolamine HBr (muscarinic receptor blocker; 0.3 mg/kg, i.p.) 30 minutes before the training trial for inducing acquisition impairment.
In series [9] the test system is cerebral blood flow rate in rats. The experiment in a line: Cerebral blood flow rate by laser Doppler flowmetry. It is filed as in vivo, rat. The settings on record: 50-100 mg/kg ferulic acid, from 10 to 40 minutes after administration, FIG. 10. How it is done:
The cerebral blood flow rate was measured by laser Doppler flowmetry in rats according to the procedure described in Morikawa, E. et al.^(19).

For series [10] the following is noted: administered intravenously; reported by Xu et al.; cited from earlier work.

Turning to `COc1cc(C=CC(=O)O)ccc1O` [ferulic acid, 4-hydroxy-3-methoxycinnamic acid], the “effect on scopolamine-induced acquisition impairment (step-through latency, passive avoidance)” value in series [1] was “attenuates”. In addition, the “effect on mecamylamine-induced acquisition impairment (step-through latency, passive avoidance)” value in series [2] is “attenuates”. The “effect on pirenzepine-induced acquisition impairment (step-through latency, passive avoidance)” value in [3] is “counteracts”. In addition, the “effect on CXM-induced consolidation impairment (step-through latency, passive avoidance)” value in [4] is “significantly ameliorates”. The “effect on learning impairment induced by scopolamine plus mecamylamine (passive avoidance)” value in series [5] is recorded as “attenuates”. Besides, in [6] (ferulic acid 100 mg/kg with scopolamine methylbromide 0.5 mg/kg i.p.), the “blocking of the counteracting effects of ferulic acid on scopolamine-induced learning impairment by peripheral cholinergic antagonist scopolamine methylbromide” value is reported as “does not block”. In addition, the “effect on scopolamine-induced acquisition impairment (passive avoidance)” value in series [6] (ferulic acid at 100 mg/kg, scopolamine 0.3 mg/kg i.p.) is recorded as “ameliorates”. Further, the “effect on memory impairment induced by AF64A (passive avoidance)” value in [7] was “counteracts”. The “effect on scopolamine-induced acquisition impairment in a water maze” value in series [8] is given as “ameliorates”. The “effect on cerebral blood flow rate” value in series [9] is given as “enhances”. Moreover, the “half lethal dose (LD50)” value in series [10] was 866 ± 29 mg/kg.
